# Reference: US7053116B2, “Methods for protecting cells from amyloid toxicity and for inhibiting amyloid protein production” (The Salk Institute for Biological Studies, priority 2000, dated 2006)
# Where two headings read alike, the source gives them in different places. No end group written: not given here.
# Tests used:
# Hippocampal neurons [1] = assay: Hippocampal neuronal cultures, assessment of neuronal viability
# Experimental: (§1) The cells were suspended in a serum-free medium and plated on polylysine-coated 24-well tissue culture plates (1×10^6 cells/ml). The serum-free medium used is a modified minimal essential medium containing 30 mM glucose, 2 mM glutamine, 1 mM pyruvate, penicillin (100 U/ml), streptomycin (100 μg/ml), and N1supplements (Sigma). After 3 days in culture, the neurons acquire long and extensively branched neurites. Half of the medium in each dish was then replaced with fresh medium, and test reagents (20 μM peptide solutions) were added. Neuron survival was assessed 48 hours after treatment. Neurons were judged to be viable by the intactness of their neurites and soma (absence of vacuoles and the ability to exclude trypan blue). Five fields (˜80 neurons/field) were scored in each culture. The number of viable neurons in untreated cultures was designated as 100% survival.
# B12 cells [2] = details: for ability to induce MTT formazan exocytosis (in words): peptide preparations
# Experimental: MTT reduction and MTT formazan exocytosis MTT reduction by cultured cells was performed in 96-well microtiter plates containing 100 μl of medium per well. Cells (about 10^4 cells per well) were plated in Dulbecco's modified Eagles's medium (DMEM) supplemented with 5% dialyzed fetal calf serum and incubated overnight before drug treatment. MTT reduction was started by adding 10 μl per well of a 2.5 mg/ml MTT stock in phosphate-buffered saline (PBS) and terminated by adding 100 μl of a solubilization solution containing 50% N,N′-dimethylformamide and 20% sodium dodecyl sulfate (SDS; pH 4.8). […] MTT reduction is determined the next day by determining absorbance at 570 nm with an automatic microtiter plate reader, using 630 nm as the reference wavelength.
# MTT reduction by living cells is initially observed as intracellular formazan granules, and needle-like formazan crystals begin to appear on the cell surface after about 30 min of MTT reduction.
# Amyloid peptide-induced MTT formazan exocytosis was determined with B12 cells, as described herein. B12 cells on 35 mm dishes were treated with 10 μM for 16 hr at 37° C., followed by 30 min MTT reduction. The percentage of cells exocytosing MTT formazan with morphology similar to that induced by Aβ was then determined.
# B12 cells [3] = details: cited from earlier work; for induction of MTT formazan exocytosis by protein fibrils: fibrils formed under denaturing conditions, Liu and Schubert 1998; for enhancement of MTT formazan exocytosis: B12 cells, Liu and Schubert 1997
# astrocytes = assay: Astrocyte activation indicated by morphological changes; type: cell-based, rat; details: peptide preparations
# Experimental: The dissected cortices were dissociated enzymatically with trypsin and mechanically by passing through a fine pipette. The cells were cultured in α-MEM (Life Technologies, MD) containing 10% fetal bovine serum and antibiotics. After 11 days in culture, the primary cells were replated at a density of 10,000 cells/cm^2 and grown until confluent. At least 24 hr before treatment, the cells were washed twice with PBS and then incubated with serum-free α-MEM containing N2 supplements (Life Technologies, MD).
# Primary astrocytes = assay: Astrocyte culture, quantitation of secreted cytokines (ELISA); type: cell-based, rat; details: astrocyte conditioned media; 10 μM peptide for 12 hr; mean ±S.E.M.
# Experimental: Astrocyte culture and quantitation of secreted cytokines Primary astrocytes were prepared from the cortices of 2-day-old Sprague-Dawley rat pups according the method of Levison and McCarthy (Culturing Nerve Cells in: G. Banker, and K. Goslin (eds.), MIT Press, Cambridge, Mass. 1991, pp. 309–336). The dissected cortices were dissociated enzymatically with trypsin and mechanically by passing through a fine pipette. The cells were cultured in α-MEM (Life Technologies, MD) containing 10% fetal bovine serum and antibiotics. After 11 days in culture, the primary cells were replated at a density of 10,000 cells/cm^2 and grown until confluent. At least 24 hr before treatment, the cells were washed twice with PBS and then incubated with serum-free α-MEM containing N2 supplements (Life Technologies, MD).
# Cytokine Measurements For IL-1β and TNF-α measurements, 7.5×10^4 cells/well were plated in a 48-well tissue culture plate. After 48 hr of incubation in serum-free α-MEM containing N2 supplements, the cells were treated with 10 μM of various amyloid or non-amyloidogenic peptides for 12 hr. Conditioned media from duplicate wells for each sample were collected and stored at −80° C. until use. Cytokine levels in the conditioned media were determined by ELISA kits from R&D systems and performed according to the manufacturer's protocols.
# Hippocampal neurons [4] = tested on: Hippocampal neurons
# Experimental: as §1
# [5] = tested on: Aβ-induced MTT formazan exocytosis; assay: Blocking of Aβ-induced MTT formazan exocytosis by amyloid-binding agents; type: cell-based
# Experimental: MTT formazan exocytosis is assessed by microscopic observation. The needle-like crystals on the surface of the cells incubated with MTT, which are easily visible under a light microscope, represent exocytosed MTT formazan (Liu et al. (1997) J. Neurochem. 69:581–593). The percentages of cells exocytosing MTT formazan were determined by counting 300 cells in multiple fields using the presence of needle-like formazan crystals on cell surface as an indicator of MTT formazan exocytosis. A cell is counted as exocytosing MTT formazan when several needle-like formazan crystals are clearly visible.
# The involvement of β-sheeted amyloid fibrils in generating this phenomenon is supported by the observation that amyloid-binding agents such as Congo red block 90% of the Aβ-induced MTT formazan exocytosis. Under denaturing conditions, non-amyloidogenic proteins such as insulin and glucagon also form protein fibrils with the same cross β structure as that in amyloid fibrils (Glenner et al., J. Histochem. Cytochem. 22:1141–1158 (1974) and Burke et al. Biochem. 11:2435–2439 (1972)). […] Therefore, the ability to enhance cellular MTT formazan exocytosis is a common property of protein fibrils having a cross β-pleated sheet structure. […]
compound,measurement,setting,value
CC[C@H](C)[C@H](NC(=O)[C@H](C)NC(=O)CNC(=O)[C@H](Cc1ccccc1)NC(=O)[C@H](CC(N)=O)NC(=O)[C@H](CC(N)=O)NC(=O)[C@H](CO)NC(=O)[C@H](CO)NC(=O)[C@H](Cc1c[nH]cn1)NC(=O)[C@@H](NC(=O)[C@H](CC(C)C)NC(=O)[C@H](Cc1ccccc1)NC(=O)[C@H](CC(N)=O)NC(=O)[C@H](C)NC(=O)[C@H](CC(C)C)NC(=O)[C@H](CCCNC(=N)N)NC(=O)[C@H](CCC(N)=O)NC(=O)[C@@H](NC(=O)[C@H](C)NC(=O)[C@@H]1CSSC[C@H](NC(=O)[C@@H](N)CCCCN)C(=O)N[C@@H](CC(N)=O)C(=O)N[C@@H]([C@@H](C)O)C(=O)N[C@@H](C)C(=O)N[C@@H]([C@@H](C)O)C(=O)N1)[C@@H](C)O)C(C)C)C(=O)N[C@@H](CC(C)C)C(=O)N[C@@H](CO)C(=O)N[C@@H](CO)C(=O)N[C@H](C(=O)N[C@@H](CC(N)=O)C(=O)N[C@H](C(=O)NCC(=O)N[C@@H](CO)C(=O)N[C@@H](CC(N)=O)C(=O)N[C@H](C(=O)N[C@@H](Cc1ccc(O)cc1)C(N)=O)[C@@H](C)O)C(C)C)[C@@H](C)O [Human amylin],neurotoxicity to rat hippocampal neurons (in words),Hippocampal neurons [1]; peptide preparations,kill rat hippocampal neurons
same,Viable Neurons (% of control),"Hippocampal neurons [1]; rat hippocampal neurons, 20 μM peptide solutions, 48 hours after treatment, mean ±S.E.M.",32 ± 7 % of control
same,MTT (%),"B12 cells [2]; percentage of B12 cells exocytosing MTT formazan, 10 μM for 16 hr at 37° C., followed by 30 min MTT reduction, mean ±S.E.M.",97 ± 1 %
insulin: non-amyloidogenic protein forming fibrils with cross β structure under denaturing conditions,induction of MTT formazan exocytosis by protein fibrils,B12 cells [3],induce MTT formazan exocytosis
glucagon: non-amyloidogenic protein forming fibrils with cross β structure under denaturing conditions,induction of MTT formazan exocytosis by protein fibrils,B12 cells [3],induce MTT formazan exocytosis
CC(C)C[C@H](NC(=O)[C@H](CC(N)=O)NC(=O)[C@H](CC(N)=O)NC(=O)[C@H](CO)NC(=O)[C@H](CO)NC(=O)[C@H](CCCNC(=N)N)NC(=O)[C@@H](NC(=O)[C@H](CC(C)C)NC(=O)[C@H](Cc1ccccc1)NC(=O)[C@H](CC(N)=O)NC(=O)[C@H](C)NC(=O)[C@H](CC(C)C)NC(=O)[C@H](CCCNC(=N)N)NC(=O)[C@H](CCC(N)=O)NC(=O)[C@@H](NC(=O)[C@H](C)NC(=O)[C@@H]1CSSC[C@H](NC(=O)[C@@H](N)CCCCN)C(=O)N[C@@H](CC(N)=O)C(=O)N[C@@H]([C@@H](C)O)C(=O)N[C@@H](C)C(=O)N[C@@H]([C@@H](C)O)C(=O)N1)[C@@H](C)O)C(C)C)C(=O)NCC(=O)N1CCC[C@H]1C(=O)N[C@H](C(=O)N[C@@H](CC(C)C)C(=O)N1CCC[C@H]1C(=O)N1CCC[C@H]1C(=O)N[C@H](C(=O)N[C@@H](CC(N)=O)C(=O)N[C@H](C(=O)NCC(=O)N[C@@H](CO)C(=O)N[C@@H](CC(N)=O)C(=O)N[C@H](C(=O)N[C@@H](Cc1ccc(O)cc1)C(N)=O)[C@@H](C)O)C(C)C)[C@@H](C)O)C(C)C [Rat amylin],enhancement of MTT formazan exocytosis,B12 cells [3],do not enhance
same,astrocyte activation as indicated by the morphological changes of the astrocytes (in words),astrocytes,not active
same,IL-1β,Primary astrocytes,46 ± 7 pg/mL
same,TNF-α,Primary astrocytes,48 ± 8 pg/mL
same,neurotoxicity to rat hippocampal neurons (in words),Hippocampal neurons [4],not active
same,ability to induce MTT formazan exocytosis (in words),B12 cells [2],not active
Aβ1-28: nonfibrillogenic peptide,enhancement of MTT formazan exocytosis,B12 cells [3],do not enhance
Nc1c(/N=N/c2ccc(-c3ccc(/N=N/c4cc(S(=O)(=O)O)c5ccccc5c4N)cc3)cc2)cc(S(=O)(=O)O)c2ccccc12 [Congo red],block of the Aβ-induced MTT formazan exocytosis,[5],90%
GSNKGAIIGLM [Aβ25–35],enhancement of MTT formazan exocytosis,B12 cells [3],dramatically enhance
same,IL-1β,Primary astrocytes,754 ± 78 pg/mL
same,TNF-α,Primary astrocytes,350 ± 46 pg/mL
same,ability to induce MTT formazan exocytosis (in words),B12 cells [2],always active
"Aβ1-40: amyloid beta 1-40, 40 amino acid form of amyloid beta peptide; lot not specified",enhancement of MTT formazan exocytosis,B12 cells [3],dramatically enhance
same,ability to induce MTT formazan exocytosis (in words),B12 cells [2],variable among different manufacturer's lots
"Aβ17-40: nonfibrillogenic peptide (LVFFAEDVGSNKGAIIGLMVGGVV; Amyloid-beta protein 40; UniProt P05067 688-711, looked up, fragment)",enhancement of MTT formazan exocytosis,B12 cells [3],do not enhance
